# Source: patent US20210322376A1, “METHODS FOR REDUCING THE RISK OF DIABETES IN PATIENTS BEING TREATED FOR HIGH CHOLESTEROL-RELATED ILLNESSES” (Esperion Therapeutics, Inc., priority 2018, published 2021)
# Assays:
# [1] = Example 2: bempedoic acid vs placebo, statin-intolerant patients with a history of diabetes, 24 weeks; format: in vivo, human; conditions: statin intolerant (8% very low dose statin), FIG. 4 and FIG. 5
# Source text: (§1) Patients with diabetes were identified primarily through medical history and/or baseline lab results. No entry restrictions were placed on these patients with the exception of having a HbA1c <10% during screening. The use of background concomitant medications related to diabetes treatment was captured at the study outset. Changes in all concomitant medications were tracked during the treatment phase. No restrictions were placed on changes in diabetes medications (stopping, starting, or changing dose) during the trial.
# 345 total patients with statin intolerance (8% very low dose statin) were treated for 24 weeks. […] Patients were treated with bempedoic acid or placebo. The baseline HbA1c levels for patients receiving bempedoic acid was 6.91%, and the baseline HbA1c levels for patients receiving placebo was 7.12%. The baseline fasting glucose levels for patients receiving bempedoic acid was 130.7 mg/dl. The baseline fasting glucose levels for patients receiving placebo was 139.8 mg/dl. Changes in HbA1c levels were measured at week 12 and week 24 and changes in fasting glucose levels were measured at weeks 4, 12, and 24.
# [2] = Thorough QT/QTc (TQT) study of ETC-1002; format: in vivo
# [3] = Cumulative data of Examples 1-4: new onset or worsening of diabetes; format: in vivo, human; conditions: patients taking statins plus bempedoic acid; statins plus placebo 5.6%
# [4] = Example 3: bempedoic acid vs placebo, statin-intolerant patients on background ezetimibe, 12 weeks; format: in vivo, human; conditions: statin intolerant (31% low/very low dose statin), FIG. 6 and FIG. 7
# Source text: as §1
# 269 total patients with statin intolerance (31% low/very dose statin) were treated for 12 weeks; all patients on background ezetimibe therapy. […] Patients were treated with bempedoic acid or placebo. The baseline HbA1c levels for patients receiving bempedoic acid was 6.66%, and the baseline HbA1c levels for patients receiving placebo was 6.76%. The baseline fasting glucose levels for patients receiving bempedoic acid was 133.7 mg/dl. The baseline fasting glucose levels for patients receiving placebo was 133.4 mg/dl. Changes in HbA1c levels were measured at week 12, and changes in fasting glucose levels were measured at weeks 4, 8, and 12.
# [5] = Muscle-related adverse events with add-on ETC-1002 therapy to statin therapy; format: in vivo
# Source text: In some aspects, the subject experiences an adverse event when on one or more statins at the lowest FDA approved dose, said adverse events being selected form the group consisting of muscle-related pain, aches, weakness, and cramping.
# [6] = Example 1: bempedoic acid vs placebo, patients with a history of diabetes on MTD statin, 52 weeks (HbA1c, fasting glucose); format: in vivo, human; conditions: background MTD statin (50% high intensity), FIG. 2 and FIG. 3
# Source text: as §1
# 2230 total patients were receiving background MTD statin (50% high intensity) for 52 weeks. […] Patients were treated with bempedoic acid or placebo. The baseline HbA1c levels for patients receiving bempedoic acid was 6.85%, and the baseline HbA1c levels for patients receiving placebo was 6.89%. The baseline fasting glucose levels for patients receiving bempedoic acid was 131.4 mg/dl. The baseline fasting glucose levels for patients receiving placebo was 130.6 mg/dl. Changes in HbA1c levels were measured at week 12 and week 52 and changes in fasting glucose levels were measured at weeks 4, 8, 12, 24, and 36 and 52.
# [7] = Pharmacokinetics of ETC-1002; conditions: human, in vivo
# Method: In some aspects, the methods herein provide for treating cardiovascular disease and/or reducing the risk of cardiovascular disease in a subject comprising administering an amount of a composition comprising ETC-1002 which is rapidly absorbed having a Tmax at less than about 4 hours.
smiles,measurement,setting,value
"CC(C)(CCCCCC(O)CCCCCC(C)(C)C(=O)O)C(=O)O [ETC-1002, 8-hydroxy-2,2,14,14 tetramethylpentadecanedioic acid]","incidence of diabetes-related phenotypes, worsening of diabetes, new onset of diabetes",[1],"reduces incidence of diabetes-related phenotypes, worsening of diabetes, and new onset of diabetes relative to placebo"
same,QTc or QT/QTc prolongation,[2]; TQT study,does not prolong QTc or QT/QTc
same,heart rate and PR and QRS intervals,[2]; add-on ETC-1002 therapy,does not affect subject heart rate and PR and QRS intervals
same,frequency of new onset or worsening of diabetes and diabetes-related symptoms,[3],4%
same,"incidence of diabetes-related phenotypes, worsening of diabetes, new onset of diabetes",[4],"reduces the incidence of diabetes-related phenotypes, worsening of diabetes, and new onset of diabetes relative to placebo"
same,muscle-related adverse events that began or increased during statin therapy,[5],significantly lowered or even resolved
same,"incidence of diabetes-related phenotypes, worsening of diabetes, new onset of diabetes",[6],"reduces the incidence of diabetes-related phenotypes, worsening of diabetes, and new onset of diabetes relative to placebo"
same,Tmax,[7]; rapidly absorbed,< 4 h
same,half-life,"[7]; systemic exposure, AUCtau,ss",15 to 27 h
